Literature values, collected in EP1239867B1, “METHODS FOR TREATING AND PREVENTING DAMAGE TO MUCOSAL TISSUE” (University of Southern California, priority 1999, dated 2005).
Square brackets hold non-standard residues; d marks the D form. Ends that are not written are not given here. Phe(4-NH2) = Nc1ccc(C[C@H](N)C(=O)O)cc1

Test system: AT2 receptor

Row | affinity for AT2 than AT1 (times higher) (selectivity AT2 over AT1, Speth and Kim, BBRC 169:997-1006 (1990)) [times] | Substance | binding characteristics (in words) (experimental models of Catalioto et al. 1994, Bryson et al. 1992)
1 | – | Asp-Arg-Val-Tyr-Ile-Xaa-Pro-Phe (DRVYI[Phe(4-NH2)]PF) [p-aminophenylalanine6-AII] | comparable to AT2 antagonists
2 | 100 | Asp-Arg-Val-Tyr-Ile-His-Pro-Phe [AII] | –
